Laboratory results published in publication PMC10167667, “Structural and functional characterization of a multi-domain GH92 α-1,2-mannosidase from Neobacillus novalis” (Acta Crystallographica. Section D, Structural Biology, 2023).

Biological target: T1, NnGH92 (Neobacillus novalis, UniProt A0A7R9KAR8)
T1 construct: full-length five-domain enzyme without native signal peptide (Ser34-Asp1411); Alcalase signal peptide then N-terminal HHHHHHPR tag kept; secreted from Bacillus subtilis
Assay: X-ray crystal structure, […] Å
Format: binding
Details: co-crystallised with 5 mM mannoimidazole and 8 mM CaCl2, pH 6.6; catalytic active site (-1 subsite, Ca2+); second site in N-terminal CBM32 (chain A)

T1 sequence (A0A7R9KAR8 entry or part of it): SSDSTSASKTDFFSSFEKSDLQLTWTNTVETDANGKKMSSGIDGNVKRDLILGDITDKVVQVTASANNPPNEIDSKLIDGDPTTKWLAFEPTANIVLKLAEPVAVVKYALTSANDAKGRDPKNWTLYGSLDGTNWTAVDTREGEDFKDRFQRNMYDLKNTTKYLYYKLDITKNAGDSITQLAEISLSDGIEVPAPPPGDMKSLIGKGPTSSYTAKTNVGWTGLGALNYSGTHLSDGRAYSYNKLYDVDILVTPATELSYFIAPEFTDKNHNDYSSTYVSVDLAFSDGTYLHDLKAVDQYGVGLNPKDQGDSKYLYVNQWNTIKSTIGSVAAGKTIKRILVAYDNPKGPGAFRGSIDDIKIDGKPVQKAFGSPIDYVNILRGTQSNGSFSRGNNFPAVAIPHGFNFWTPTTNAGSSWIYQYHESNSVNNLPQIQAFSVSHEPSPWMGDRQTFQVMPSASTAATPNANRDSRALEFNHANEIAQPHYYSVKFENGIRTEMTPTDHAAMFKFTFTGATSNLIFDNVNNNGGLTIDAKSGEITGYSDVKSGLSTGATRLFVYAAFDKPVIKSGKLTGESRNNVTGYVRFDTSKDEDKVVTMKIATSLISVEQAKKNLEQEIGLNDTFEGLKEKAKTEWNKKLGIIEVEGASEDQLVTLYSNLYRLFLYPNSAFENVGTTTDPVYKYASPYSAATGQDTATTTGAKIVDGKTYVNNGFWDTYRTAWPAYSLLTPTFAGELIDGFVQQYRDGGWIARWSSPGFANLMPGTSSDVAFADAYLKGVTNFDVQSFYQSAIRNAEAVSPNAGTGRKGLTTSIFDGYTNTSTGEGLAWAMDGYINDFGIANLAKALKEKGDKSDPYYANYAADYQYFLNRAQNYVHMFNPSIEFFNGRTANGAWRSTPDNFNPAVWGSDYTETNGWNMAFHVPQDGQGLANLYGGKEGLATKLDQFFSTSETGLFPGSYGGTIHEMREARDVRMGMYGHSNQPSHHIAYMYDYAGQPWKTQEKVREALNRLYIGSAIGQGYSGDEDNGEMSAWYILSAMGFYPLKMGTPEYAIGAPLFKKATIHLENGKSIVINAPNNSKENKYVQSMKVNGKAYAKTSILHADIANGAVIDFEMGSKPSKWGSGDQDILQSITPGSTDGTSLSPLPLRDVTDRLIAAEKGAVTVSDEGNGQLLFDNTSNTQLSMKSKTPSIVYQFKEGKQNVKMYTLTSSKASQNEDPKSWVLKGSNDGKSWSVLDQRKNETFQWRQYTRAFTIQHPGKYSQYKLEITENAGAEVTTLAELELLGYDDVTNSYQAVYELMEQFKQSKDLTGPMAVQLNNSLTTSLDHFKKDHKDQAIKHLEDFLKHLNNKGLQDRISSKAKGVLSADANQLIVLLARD

With `OC[C@@H]1[C@@H](O)[C@H](O)[C@H](O)c2nccn21` [mannoimidazole] the “X-ray crystal structure, 2.3 Å” value was “solved in complex with the mannosidase inhibitor mannoimidazole (ManI; PDB entry 7nsn”.
